Test results published in US11478445B2, “Method for treating acute myeloid leukemia” (Bionomics Limited, priority 2017, dated 2022).
Entries after “also recorded” stand apart in the source; their conditions may differ.

Experiments:
[1] = system: Noxa; test: Western blot for Noxa in AML cell lines; type: cell-based; settings: six AML cell lines, 10 nM and 100 nM, 8 h
Method: (§1) Cells were harvested (4×10^6 for cell lines and 7×10^6 for L-AMLs) and washed 3 times with cold PBS (centrifuged at 4° C.). Lysis buffer was prepared with NP40 Cell Lysis Buffer (ThermoFisher Scientific), cOmplete protease inhibitor (Roche, 046993116001), PhosStop (Roche, 04906837001) and Pefablock (Roche, 11585916001) at the recommended concentrations. After the washes, cells were resuspended in 50 μL of lysis buffer, vortexed and incubated on ice for 30 min. Samples were vortexed every 10 min. After 30 min incubation, samples were centrifuged at 14,000 g at 4° C. for 10 min and supernatants were transferred to tubes. Protein was quantified using the DC Protein Assay kit (BioRad) per manufacturer's protocol. 50 μg of cell lines lysate or 20 μg of L-AML6 lysate were loaded for SDS-PAGE. Protein was transferred from the gels into PVDF membranes using a semi dry transfer apparatus (BioRad). […]
(§2) Once it was determined that this group of AML cell lines are highly sensitive to EX 1, the mechanism underlying this response was investigated. […]
(§3) Therefore, cells were treated with a range of doses of EX 1 for 8 h and 24 h, as described above, before protein extraction was performed. […] Noxa was readily detected in control lysate prepared from HEK293 cells.

[2] = system: chronic lymphocytic leukaemia (CLL) cells; settings: Bates et al. 2016; cited from earlier work
[3] = system: AML cell lines; test: Cell cycle assay (PI staining); type: cell-based
Method: 2×10^5 cells were harvested into 5 mL tubes and washed 3 times with PBS. Cell pellets were resuspended in 300 μL of cold PBS while vortexing. Next, cells were permeabilised with 700 μL of cold (−20° C.) 100% ethanol added dropwise while vortexing at slow speed. Cell suspensions were incubated on ice for 30 min, centrifuged at 300 g for 10 min and cell pellets resuspended in 100 μL PI solution (0.1% Triton X-100, 100 μg/mL DNAse-free RNAse A-Sigma, and 40 µg/mL PI in PBS). Cell suspensions were incubated at 37° C. for 30 min in the dark. 200 μL of PBS was added to each tube before analysis on an LSRFortessa (BD Biosciences) flow cytometer. Results were analysed with FCS Express 4 Flow Research Edition software (De Novo Software).
(§4) For that, cells were plated at 10^6 cells/mL and treated with vehicle (DMSO) alone or a range of doses of EX 1 (0.1 nM, 1 nM, 10 nM and 100 nM) for 6 h, 8 h and 24 h. Cells were harvested for detection of ROS and superoxide anion (O2^·−) levels at 6 h and 24 h, for protein extraction at 8 h and 24 h, and for cell cycle analysis at 24 h.
Therefore, cell cycle analysis was performed by PI staining in the cell lines after 24 h of treatment with a range of doses of EX 1, as described above.

[4] = system: P-JNK^Thr183/Tyr185; test: Western blot for P-JNK in AML cell lines; type: cell-based; settings: all cell lines, 8 h, 10 nM and 100 nM
Method: as §1, §2, §3

[5] = system: AML cell lines; test: Total ROS assay (CM-H2DCFDA, flow cytometry); type: cell-based
Method: 1.25×10^5 cells were harvested into 5 mL tubes and washed with PBS. […] All tubes were incubated at 37° C. for 20 min and then cells washed 3 times with PBS. Cells were resuspended in 300 μL PBS and analysed on an LSRFortessa (BD Biosciences) flow cytometer. Results were analysed with FCS Express 4 Flow Research Edition software (De Novo Software).
as §4
Total ROS levels were measured by flow cytometry using the fluorogenic dye CM-H2DCFDA at a final concentration of 5 μM. Mitochondria superoxide anion (O2^·−) levels were measured by flow cytometry using MitoSox, also at a final concentration of 5 μM.

For COc1cc(C(=O)c2c(C)oc3c(O)c(OC)ccc23)cc(OC)c1OC [EX 1, 2-Methyl-7-hydroxy-3-(3,4,5-trimethoxybenzoyl)-6-methoxybenzofuran], the Noxa induction [1] is given as “could only be detected in OCI-AML3 and ME1; also recorded: only observed in OCI-AML3 and ME1 lines”, the “apoptosis via P-JNK and Noxa” value [2] is given as “induce apoptosis” and the “cell cycle distribution (G2/M)” value ([3]; HL60, KG1, OCI-AML3 and ME1, 24 h) is given as “G2/M cell cycle arrest”. For the same compound, the sub-G0 cell population ([3]; KG1 and HL60, 24 h) was “marked increases in the sub-G0 cell population; also recorded: increase in sub-G0 population starting at treatment with 10 nM”, the “percentage of cells in G2/M and G1” value ([3]; MV4;11 and MOLM13, 24 h) was “dose-dependent reduction” and the “sub-G0 population (apoptosis)” value ([3]; MV4;11 and MOLM13, 24 h) was “underwent apoptosis as evidenced by the increase in sub-G0 population”. For the same compound, the “cell cycle distribution (sub-G0, G2/M)” value ([3]; MV4;11 and MOLM13, 24 h, 10 nM) was “marked apoptosis induction (sub-G0 gate) and G2/M reduction”, the P-JNK induction [4] was “strongly induced in all cell lines; also recorded: induced in all cell lines” and the “total ROS levels” value ([5]; OCI-AML3, 24 h) was “dose response reduction in total ROS”. For the same compound, the “total ROS levels” value ([5]; the other cell lines (not OCI-AML3), 6 h and 24 h) was “none of the other cell lines showed any changes in total ROS levels”.
